One test addresses FGFR2 (Homo sapiens (Human), UniProt P21802). The test is described as follows: FGFR2 Biochemical Caliper Assay. How it is done: Compounds of the present invention were also tested in a FGFR2 Biochemical Caliper Assay. Compounds were prepared in 10 mM DMSO solution and serially diluted into 11 concentrations by 3-fold dilution. […] 5 uL of ATP solution (100 uM) was added to start the reaction and the plate was incubated for 90 minutes, then 70 uL of stopping buffer (0.5M EDTA) was added to terminate the reaction. Each well was analyzed using EZ reader.

A further test deals with SNU16 cells. The test is described as follows: SNU16 Cancer Cell Line Proliferation Assay. The conditions noted are these: Homo sapiens; SNU-16 cells. The class given is cell-based. Summed up: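 Proliferation read-out: CellTiter Glo chemiluminescence after 96 h compound exposure. Test compounds, serially diluted 3-fold over 11 points from a 10 mM DMSO stock, were added to SNU16 cells plated 24 h earlier at 37 degrees.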

Data on 49 molecules can be found in patent US11780845B2 (Relay Therapeutics, Inc., priority 2019, dated 2023).

FGFR2, sequence (P21802 22-821): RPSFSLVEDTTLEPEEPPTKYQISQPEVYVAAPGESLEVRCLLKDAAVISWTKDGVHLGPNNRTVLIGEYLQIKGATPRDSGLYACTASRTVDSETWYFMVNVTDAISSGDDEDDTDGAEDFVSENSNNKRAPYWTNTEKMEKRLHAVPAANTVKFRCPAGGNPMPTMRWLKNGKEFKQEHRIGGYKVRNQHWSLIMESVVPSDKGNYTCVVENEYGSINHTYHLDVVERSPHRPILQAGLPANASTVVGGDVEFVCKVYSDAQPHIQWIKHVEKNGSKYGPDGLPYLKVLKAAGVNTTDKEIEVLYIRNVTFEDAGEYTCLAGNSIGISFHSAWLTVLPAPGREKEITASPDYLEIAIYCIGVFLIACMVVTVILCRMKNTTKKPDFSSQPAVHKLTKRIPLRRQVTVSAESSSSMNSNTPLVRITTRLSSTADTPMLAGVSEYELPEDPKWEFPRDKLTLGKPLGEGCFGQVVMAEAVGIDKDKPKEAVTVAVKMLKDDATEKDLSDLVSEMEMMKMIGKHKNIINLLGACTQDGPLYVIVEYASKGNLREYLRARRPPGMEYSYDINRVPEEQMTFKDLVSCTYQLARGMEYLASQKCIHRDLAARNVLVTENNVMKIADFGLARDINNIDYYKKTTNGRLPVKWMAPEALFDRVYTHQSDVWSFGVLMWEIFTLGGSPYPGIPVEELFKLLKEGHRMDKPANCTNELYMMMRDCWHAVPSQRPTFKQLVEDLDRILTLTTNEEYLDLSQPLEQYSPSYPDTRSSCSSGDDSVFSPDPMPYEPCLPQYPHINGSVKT

The IC50 is the concentration that inhibits the measured activity by half. A low value points to greater potency in that assay. On to `C=CC(=O)Nc1ccc(-c2c(-c3cc(C)c(Oc4ncccn4)c(OC)c3)c3c(N)ncnc3n2C)cc1` [Example 120], for which the IC50 against FGFR2 was < 100 nM; with SNU16 cells, ≤ 100 nM.

Regarding `C=CC(=O)N1CC=C(c2c(-c3ccc(Oc4ncccn4)cc3)c3c(N)ncnc3n2C)C1` [Example 686], the IC50 on FGFR2 is < 100 nM; in the test with SNU16 cells, ≤ 100 nM.

Take `C=C(C)C(=O)Nc1ccc(-c2c(-c3ccc(C(=O)NCc4ccn(C)n4)cc3)c3c(N)ncnc3n2C)cc1` [Example 383]: the IC50 against FGFR2 was in the range of 1000 to 100000 nM; with SNU16 cells, 250 to 1000 nM.

With `C=CC(=O)N1CC=C(c2c(-c3ccc(OC)cc3)c3c(N)ncnc3n2C)CC1` [Example 654], the figures for the IC50 against FGFR2 and in the test with SNU16 cells were < 100 nM and ≤ 100 nM, respectively.

Take `C=C(C)C(=O)Nc1ccc(-c2c(-c3ccc(C(=O)N[C@@H](CO)C4CC4)cc3)c3c(N)ncnc3n2C)cc1` [Example 290]: the values for the IC50 against FGFR2 and in the test with SNU16 cells were < 100 nM and 100 to 250 nM, respectively.

As to `C=C(C)C(=O)Nc1ccc(-c2c(-c3ccc(Oc4nccc(C)n4)c(C)c3)c3c(N)ncnc3n2C)cc1` [Example 484], the figures for the IC50 against FGFR2 and with SNU16 cells were < 100 nM and ≤ 100 nM, respectively.

`C=C(C)C(=O)Nc1ccc(-c2c(-c3cc(F)c(Oc4ncccn4)c(Cl)c3)c3c(N)ncnc3n2C)cc1` [Example 94]: the IC50 is < 100 nM on FGFR2 and ≤ 100 nM in the test with SNU16 cells.

For the molecule `Cn1c(-c2ccc(NC(=O)[C@@H]3CO3)cc2)c(-c2ccc(C(=O)N3CCCC3)cc2)c2c(N)ncnc21` (single isomer, unassigned) [Example 584], the IC50 against FGFR2 lay in the range of 100 to 250 nM; with SNU16 cells, 250 to 1000 nM.

On to `C=C(C)C(=O)Nc1ccc(-c2c(-c3ccc(Oc4cccc(C)n4)cc3)c3c(N)ncnc3n2CC)cc1` [Example 83], for which the IC50 on FGFR2 was < 100 nM; with SNU16 cells, ≤ 100 nM.

For `C/C=C/C(=O)N1CC(n2cc(-c3c(-c4ccc(Oc5cccc(C)n5)cc4)c4c(N)ncnc4n3C)cn2)C1` [Example 639], the IC50 against FGFR2 is < 100 nM; with SNU16 cells, ≤ 100 nM.

Turning to `C=CC(=O)N1CCC(c2c(C3=CCC(CO)CC3)c3c(N)ncnc3n2C)C1` (centres unmarked) [Example 781], the IC50 at FGFR2 and with SNU16 cells was 1000 to 100000 nM in each case.

`C=C(C)C(=O)Nc1ccc(-c2c(-c3ccc(C(=O)N4CCC[C@H]4C#N)c(F)c3)c3c(N)ncnc3n2C)cc1` [Example 437]: the results for the IC50 against FGFR2 and with SNU16 cells were < 100 nM and ≤ 100 nM, respectively.

As for `C=C(C)C(=O)Nc1ccc(-c2c(-c3ccc(Oc4cccc(C)n4)cc3)c3c(N)ncnc3n2C2COC2)cc1` [Example 415], the values for the IC50 at FGFR2 and in the test with SNU16 cells were < 100 nM and ≤ 100 nM, respectively.

Consider `C=C(C)C(=O)Nc1ccc(-c2c(-c3ccc(C(=O)N4CCC[C@@H](OC)C4)cc3)c3c(N)ncnc3n2C)cc1` [Example 388], for which the IC50 fell in the range of 250 to 1000 nM on FGFR2 and 100 to 250 nM with SNU16 cells.

On to `C=C(C)C(=O)Nc1ccc(-c2c(-c3ccc(C(=O)NC4CCOC4)c(OC)c3)c3c(N)ncnc3n2C)cc1` (centres unmarked) [Example 386], for which the IC50 against FGFR2 was < 100 nM; in the test on SNU16 cells, 100 to 250 nM.

On to `C=C(C)C(=O)Nc1ccc(-c2c(-c3ccc(C(=O)N4CCCC4)cc3F)c3c(N)ncnc3n2C)cc1` [Example 537], for which the IC50 at FGFR2 is 100 to 250 nM; in the test on SNU16 cells, ≤ 100 nM.

For `C=CC(=O)Nc1ccc(-c2c(-c3ccc(C(=O)N4CCCC4)cc3)c3c(N)ncnc3n2C)cc1F` [Example 217], the IC50 at FGFR2 is < 100 nM; with SNU16 cells, ≤ 100 nM.

For `CC#CC(=O)N1CCC(n2cc(-c3c(-c4ccc(Oc5cccc(C)n5)cc4)c4c(N)ncnc4n3C)cn2)CC1` [Example 644], the IC50 against FGFR2 and with SNU16 cells was 250 to 1000 nM in each case.

Regarding `C=C(C)C(=O)Nc1ccc(-c2c(-c3ccc(Cn4cccn4)cc3)c3c(N)ncnc3n2C)cc1` [Example 244], the IC50 is 1000 to 100000 nM on FGFR2 and 250 to 1000 nM in the test on SNU16 cells.

For the molecule `C=CC(=O)N1CCC(c2c(-c3ccc(CC(=O)N(C)C)cc3)c3c(N)ncnc3n2C)C1` (centres unmarked) [Example 764], the IC50 against FGFR2 and in the test on SNU16 cells was 1000 to 100000 nM in each case.

In the case of `C=CC(=O)N1CCC(c2c(-c3ccc(Oc4ncccn4)cc3)c3c(N)ncnc3n2CCN2CCOCC2)C1` (centres unmarked) [Example 728], the IC50 on FGFR2 and in the test with SNU16 cells was 1000 to 100000 nM in each case.

Consider `C=CC(=O)N1CCC(c2c(-c3ccc(OC4CC4)cc3)c3c(N)ncnc3n2C)C1` (centres unmarked) [Example 756], for which the IC50 against FGFR2 is 100 to 250 nM; with SNU16 cells, ≤ 100 nM.

For the molecule `C=C(C)C(=O)Nc1ccc(-c2c(-c3ccc(C(=O)N4CCC5(CC5)C4)cc3)c3c(N)ncnc3n2C)cc1` [Example 234], the IC50 on FGFR2 is < 100 nM; in the test with SNU16 cells it was ≤ 100 nM.

Take `C=C(C)C(=O)Nc1ccc(-c2c(-c3ccc(Cn4nc(C)cc4C)cc3)c3c(N)ncnc3n2C)cc1` [Example 140]: the IC50 is 250 to 1000 nM against FGFR2 and 100 to 250 nM with SNU16 cells.

As to `C=CC(=O)N1CCCC(n2cc(-c3c(-c4ccc(Oc5cccc(C)n5)cc4)c4c(N)ncnc4n3C)cn2)C1C` (centres unmarked) [Example 627], the figures for the IC50 against FGFR2 and in the test on SNU16 cells were < 100 nM and ≤ 100 nM, respectively.

On to `C=C(C)C(=O)Nc1ccc(-c2c(-c3ccc(C(=O)NC4CC(F)C4)c(F)c3)c3c(N)ncnc3n2C)cc1` (centres unmarked) [Example 567], for which the values for the IC50 against FGFR2 and with SNU16 cells were 100 to 250 nM and ≤ 100 nM, respectively.

Regarding `CC#CC(=O)N1CCC(c2c(-c3ccc(Oc4cccc(C)n4)cc3)c3c(N)ncnc3n2C)C1` (centres unmarked) [Example 699], the IC50 at FGFR2 is 100 to 250 nM; in the test on SNU16 cells, ≤ 100 nM.

`C=C(C)C(=O)Nc1ccc(-c2c(-c3ccc(-c4ccon4)cc3)c3c(N)ncnc3n2C)cc1` [Example 199]: the IC50 against FGFR2 and in the test on SNU16 cells was 250 to 1000 nM in each case.

With `C=CC(=O)Nc1ccc(-c2c(C3=CCC(C(=O)NC4CCCC4)CC3)c3c(N)ncnc3n2C)cc1` (centres unmarked) [Example 298], the figures for the IC50 against FGFR2 and with SNU16 cells were < 100 nM and ≤ 100 nM, respectively.

Consider `C=C(C)C(=O)Nc1ccc(-c2c(-c3ccc(C(=O)N[C@@H]4CCOC4)cc3)c3c(N)ncnc3n2C)cc1` [Example 300], for which the values for the IC50 on FGFR2 and in the test with SNU16 cells were < 100 nM and ≤ 100 nM, respectively.

For `C=C(C)C(=O)Nc1ccc(-c2c(-c3ccc(Oc4nccc(C)n4)c(OC)c3)c3c(N)ncnc3n2C)c(F)c1` [Example 444], the results for the IC50 against FGFR2 and in the test on SNU16 cells were < 100 nM and ≤ 100 nM, respectively.

In the case of `Cn1c(-c2ccc(NC(=O)C3=CCC3)cc2)c(-c2ccc(C(=O)NCC3CCC3)c(F)c2)c2c(N)ncnc21` [Example 590], the results for the IC50 on FGFR2 and in the test on SNU16 cells were < 100 nM and ≤ 100 nM, respectively.

`C=CC(=O)N1CCC(c2c(-c3ccc(C(=O)N4CCSC4)cc3)c3c(N)ncnc3n2C)C1` (centres unmarked) [Example 731]: the IC50 at FGFR2 and with SNU16 cells was 250 to 1000 nM each time.

With `C=CC(=O)N1CCCC(c2c(-c3ccc(Oc4cccc(C)n4)cc3)c3c(N)ncnc3n2C)C1` (centres unmarked) [Example 663], the IC50 against FGFR2 and with SNU16 cells was 250 to 1000 nM throughout.

On to `C=C(C)C(=O)Nc1ccc(-c2c(-c3ccc(C(=O)NCC(C)(C)O)cc3)c3c(N)ncnc3n2C)cc1` [Example 288], for which the 50% inhibitory concentration (IC50) on FGFR2 is < 100 nM; in the test on SNU16 cells, 250 to 1000 nM.

On to `C=C(C)C(=O)Nc1ccc(-c2[nH]c3ncnc(N)c3c2-c2ccc(Oc3cccc(C)n3)cc2)cc1` [Example 703], for which the results for the IC50 at FGFR2 and in the test with SNU16 cells were < 100 nM and ≤ 100 nM, respectively.

With `C=CC(=O)N1CCC(c2c(-c3ccc(Cn4cccn4)cc3)c3c(N)ncnc3n2C)C1` (centres unmarked) [Example 772], the IC50 against FGFR2 was < 100 nM; with SNU16 cells, ≤ 100 nM.

Consider `C=C(C)C(=O)Nc1ccc(-c2c(-c3ccc(Oc4ncc(OC)cn4)c(F)c3)c3c(N)ncnc3n2C)cc1` [Example 449], for which the IC50 lay in the range of 250 to 1000 nM against FGFR2 and 100 to 250 nM in the test on SNU16 cells.

In the case of `C=C(C)C(=O)Nc1ccc(-c2c(-c3ccc(Oc4ccc(OC)c(F)n4)cc3)c3c(N)ncnc3n2C)cc1` [Example 117], the IC50 on FGFR2 was 250 to 1000 nM; with SNU16 cells, 100 to 250 nM.

As for `C=C(C)C(=O)Nc1ccc(-c2c(-c3ccc(C(=O)N4CC5CCC4C5)cc3)c3c(N)ncnc3n2C)cc1` (centres unmarked) [Example 258], the values for the half-inhibitory concentration (IC50) at FGFR2 and in the test with SNU16 cells were < 100 nM and ≤ 100 nM, respectively.

On to `C=C(C)C(=O)Nc1ccc(-c2c(-c3ccc(C(=O)NCC4CCOC4)cc3)c3c(N)ncnc3n2C)cc1` (centres unmarked) [Example 362], for which the IC50 against FGFR2 is < 100 nM; in the test with SNU16 cells, 250 to 1000 nM.

`C=CC(=O)N1CCC(c2c(-c3cnn(CCN(C)C)c3)c3c(N)ncnc3n2C)C1` (centres unmarked) [Example 715]: the IC50 on FGFR2 and with SNU16 cells was 1000 to 100000 nM throughout.

As for `C=C(C)C(=O)Nc1ccc(-c2c(-c3ccc(C(=O)N4CCCC4)cc3)c3c(N)ncnc3n2C)c(F)c1` [Example 355], the IC50 against FGFR2 was < 100 nM; with SNU16 cells, ≤ 100 nM.

`C=CC(=O)Nc1ccc(-c2c(-c3ccc(Oc4ncccn4)cc3)c3c(N)ncnc3n2C)cc1` [Example 54]: the IC50 against FGFR2 was < 100 nM; with SNU16 cells, ≤ 100 nM.

Regarding `C=C(C)C(=O)Nc1ccc(-c2c(-c3ccc(Oc4nccc(C)n4)c(F)c3)c3c(N)ncnc3n2C2CCCO2)cc1` (centres unmarked) [Example 524], the IC50 at FGFR2 is < 100 nM; with SNU16 cells, ≤ 100 nM.

`C=CC(=O)N1CCC(c2c(-c3ccc(N(C)C(C)=O)cc3)c3c(N)ncnc3n2C)C1` (centres unmarked) [Example 720]: the IC50 at FGFR2 and in the test on SNU16 cells was 1000 to 100000 nM in each case.

Regarding `C=C(C)C(=O)Nc1ccc(-c2c(-c3ccc(Oc4ncc(C)cn4)c(F)c3)c3c(N)ncnc3n2C)cc1` [Example 96], the IC50 against FGFR2 is < 100 nM; in the test on SNU16 cells, ≤ 100 nM.

In the case of `C=C(C)C(=O)Nc1ccc(-c2c(-c3ccc(C(=O)NCC4CCC4)nc3)c3c(N)ncnc3n2C)cc1` [Example 399], the IC50 was 100 to 250 nM at FGFR2 and ≤ 100 nM with SNU16 cells.

Regarding `C=C(C)C(=O)Nc1ccc(-c2c(C3=CC[C@@H](C(=O)N4CC5CC5C4)CC3)c3c(N)ncnc3n2C)cc1` (single isomer, unassigned) [Example 592], the IC50 against FGFR2 is < 100 nM; with SNU16 cells it was ≤ 100 nM.
